Test results published in ChEMBL document CHEMBL1201862, “PubChem BioAssay data set” (2004).
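Where inhibition never reached the appropriate level, the endpoint shown equals the highest concentration tested. Otherwise, values were interpolated linearly from a five-concentration, 48-hour dose response in 96-well plates. GI50: concentration for 50% inhibition of growth.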 Active and inactive are the calls of the source. No stated cut-off is given here; in the data, active = GI50 up to about 1.1 µM and inactive = higher.

Key:
Test in all cases: DTP human tumour cell line panel, 48 h
RXF 393 = system: RXF 393
UACC-62 = system: UACC-62
SR = system: SR
MCF7 = system: MCF7
ACHN = system: ACHN
SK-MEL-28 = system: SK-MEL-28
Hs-578T = system: Hs-578T
MDA-MB-435 = system: MDA-MB-435
SNB-75 = system: SNB-75
HCT-15 = system: HCT-15
SF-268 = system: SF-268
UACC-257 = system: UACC-257
TK-10 = system: TK-10
NCI-H460 = system: NCI-H460
CCRF-CEM = system: CCRF-CEM
EKVX = system: EKVX
SK-OV-3 = system: SK-OV-3
SK-MEL-2 = system: SK-MEL-2
T47D = system: T47D

Compound	GI50 (RXF 393)	GI50 (UACC-62)	GI50 (SR)	GI50 (MCF7)	GI50 (ACHN)	GI50 (SK-MEL-28)	GI50 (Hs-578T)	GI50 (MDA-MB-435)	GI50 (SNB-75)	GI50 (HCT-15) [µM]	GI50 (SF-268)	GI50 (UACC-257)	GI50 (TK-10)	GI50 (NCI-H460)	GI50 (CCRF-CEM)	GI50 (EKVX)	GI50 (SK-OV-3)	GI50 (SK-MEL-2)	GI50 (T47D)
O=C1CCCC[C@H]1C(O)CC1CC(=O)N(c2ccccc2)C(=O)C1 (stereo partly specified)	> 100 µM (inactive)	> 100 µM (inactive)	> 100 µM (inactive)	> 100 µM (inactive)	> 100 µM (inactive)	> 100 µM (inactive)	> 100 µM (inactive)	> 100 µM (inactive)	> 100 µM (inactive)	> 100	> 100 µM (inactive)	> 100 µM (inactive)	> 100 µM (inactive)	> 100 µM (inactive)	> 100 µM (inactive)	–	–	–	–
O=[PH](O)c1cccnc1	> 100 µM (inactive)	> 100 µM (inactive)	> 100 µM (inactive)	–	> 100 µM (inactive)	> 100 µM (inactive)	–	–	> 100 µM (inactive)	> 100	> 100 µM (inactive)	> 100 µM (inactive)	> 100 µM (inactive)	> 100 µM (inactive)	> 100 µM (inactive)	> 100 µM (inactive)	> 100 µM (inactive)	–	–
Cc1cccc2nc3cc(O)cc(O)c3c(O)c12	> 10 µM (inactive)	6.49 µM (inactive)	–	–	> 10 µM (inactive)	> 10 µM (inactive)	2.86 µM (inactive)	> 10 µM (inactive)	4.54 µM (inactive)	> 10	> 10 µM (inactive)	> 10 µM (inactive)	> 10 µM (inactive)	> 10 µM (inactive)	> 10 µM (inactive)	–	> 10 µM (inactive)	> 10 µM (inactive)	> 10 µM (inactive)
O=C(NO)c1ccc([N+](=O)[O-])cc1	18.3 µM (inactive)	19.7 µM (inactive)	–	–	–	23.4 µM (inactive)	–	–	23.9 µM (inactive)	64.3	> 100 µM (inactive)	28.6 µM (inactive)	37.3 µM (inactive)	50.2 µM (inactive)	26 µM (inactive)	27.1 µM (inactive)	> 100 µM (inactive)	32.1 µM (inactive)	–
COc1cc(/C=C(\NC(=O)c2ccccc2)c2nc3ccc4c(c3[nH]2)C(=O)c2ccccc2C4=O)cc(OC)c1OC	22.8 µM (inactive)	38.1 µM (inactive)	–	–	–	77.6 µM (inactive)	–	–	22.9 µM (inactive)	35.7	8.91 µM (inactive)	> 100 µM (inactive)	29.2 µM (inactive)	–	0.687 µM (active)	44 µM (inactive)	18.6 µM (inactive)	50.5 µM (inactive)	–
N#Cc1c(O)c(C=O)c(=O)n2c1[nH]c1ccccc12	> 100 µM (inactive)	> 100 µM (inactive)	61.4 µM (inactive)	44.3 µM (inactive)	> 100 µM (inactive)	> 100 µM (inactive)	> 100 µM (inactive)	> 100 µM (inactive)	> 100 µM (inactive)	> 100	> 100 µM (inactive)	> 100 µM (inactive)	> 100 µM (inactive)	> 100 µM (inactive)	> 100 µM (inactive)	> 100 µM (inactive)	> 100 µM (inactive)	–	–
O=C1C(Cl)=C(OCCCCl)C(=O)c2c(O)ccc(O)c21	2.28 µM (inactive)	1.77 µM (inactive)	0.0836 µM (active)	1.55 µM (inactive)	5.07 µM (inactive)	2.08 µM (inactive)	4.91 µM (inactive)	–	2 µM (inactive)	1.84	3.08 µM (inactive)	2.32 µM (inactive)	3.12 µM (inactive)	6.61 µM (inactive)	0.0316 µM (active)	17.7 µM (inactive)	21.5 µM (inactive)	–	2.34 µM (inactive)
CN(C)Cc1[nH]c2ccccc2c1C(=O)c1ccccc1	–	> 100 µM (inactive)	88.3 µM (inactive)	–	> 100 µM (inactive)	> 100 µM (inactive)	–	–	21.9 µM (inactive)	> 100	> 100 µM (inactive)	> 100 µM (inactive)	> 100 µM (inactive)	> 100 µM (inactive)	> 100 µM (inactive)	–	–	> 100 µM (inactive)	–
O=C(c1nsc(Cl)c1Cl)N1CCCCC1	> 100 µM (inactive)	> 100 µM (inactive)	> 100 µM (inactive)	> 100 µM (inactive)	–	> 100 µM (inactive)	> 100 µM (inactive)	> 100 µM (inactive)	> 100 µM (inactive)	> 100	> 100 µM (inactive)	> 100 µM (inactive)	> 100 µM (inactive)	–	> 100 µM (inactive)	> 100 µM (inactive)	> 100 µM (inactive)	–	–
